From patent US8546447B2, “Treatment of acne using derivatives of 5-aminolevulinic acid” (Photocure ASA, priority 2004, dated 2013)

Experiments:
[1] = test system: Propionibacterium acnes (P. acnes); assay: Dark toxicity of ALA esters in P. acnes (survival assay, colony forming ability); assay type: cell-based; conditions: for % CFU (mean normalised colony-forming units): 4 hours in the dark at 37° C.; for dark toxicity (FIG. 2): Example 1, concentrations up to 20 mM, 4 hours in the dark
Protocol: (§1) Propionibacterium acnes (P. acnes) was obtained from American Type Culture Collection (ATCC No. 6919), and bacteria were grown anaerobically in the dark on blood-agar plates at 37° C.
(§2) PIPES buffer (ca. 1 ml) was added to each blood-agar petri-plate and with the help of a sterile glass-rod and a Pasteur pipette, the bacteria solution was transferred to a 20 ml test-tube. The suspension was then diluted with PIPES buffer until the optical density (OD) was 1.00±0.01 at 550 nm as measured by a spectrophotometer.
(§3) A bacteria sample (100 μl of the suspension containing approx. 5×10^8 bacteria per ml) was collected and used as a t=0 control. Aliquots of the bacteria suspension were mixed with suitable volumes of the stock solutions of 5-ALA esters (containing 100 mM ALA ester) to obtain the appropriate concentrations and incubated for 4 hours at 37° C. in the dark. If illumination was not performed, survival was then assessed as described below.
(§4) After treatment with ALA esters (with or without illumination), the treated bacteria samples (as well as untreated controls) were collected and further diluted with PIPES buffer to 1×10^4 bacteria per ml. Aliquots of 20 ml of this suspension were then transferred to Bactoagar Petri-dishes (Futsaether et al., Can. J. Microbiol., 39(2): 180-186 1993), and incubated for 3-5 days at 37° C. in the dark. The colonies formed on the Bactoagar Petri-plates were counted using a colony counter. Cell survival after incubation with different concentrations of 5-ALA esters is given relative to the control samples (i.e. samples collected at t=0 hrs and the sample collected after 4 hrs incubation without 5-ALA ester) and given as percent survival: Survival=[Ctreated/Ccontrol]×100%
In order to find suitable conditions for studying the photodynamic effect in P. acnes after incubation with ALA esters, a study was performed to assay the toxicity of the esters. This was done in the dark to avoid any PDT effect caused by stray light.
In order to find suitable conditions for studying the photodynamic effect in P. acnes after incubation with benzyl-, 4-chlorobenzyl-, 4-nitrobenzyl-, 2-methylbenzyl-, 4-methylpentyl- and 2-methoxyethyl 5-aminolevulinate, a study was performed to assay the toxicity of these compounds. This was done in the dark, as in Example 1, to avoid any PDT effect caused by stray light.

P. acnes [2] = assay: PDT with CureLight LED 128 (Aktilite) lamp, P. acnes survival; assay type: cell-based, Propionibacterium acnes; conditions: for PDT effect, photodynamic inactivation (FIG. 10) / kill: 0.4 mM; for PDT effect, photodynamic inactivation (FIG. 10): Aktilite 128 lamp; for kill: 10 minutes illumination; for bacteria killed: 26 minutes of illumination (78 J/cm^2)
Protocol: as §1
as §2, with “spectrophotometer. At this OD the bacteria density is approximately 5×10^8 cells per ml.” for “spectrophotometer.”
as §3, §4
In order to compare the ALA hexyl ester and the ALA benzyl ester at the same concentration (1 mM), and also to test another light source, another experiment involving the use of a narrow-band red light (CureLight LED 128 lamp sold under the tradename Aktilite by Photocure ASA, Norway) was conducted. This lamp consists of 128 light emitting diodes (LED) and has a peak wavelength of 634±3 nm. The emission spectrum of the lamp has a full width at half maximum (FWHM) of 18 nm. The fluence rate at 50 mm distance is approx. 50 mW/cm^2 (max. fluence rate variation of the target area is ±10%).
After incubation with the ALA esters, 10 ml bacterial suspensions were irradiated in a 5.5 cm plastic petri-dish (see general section above). The petri-dishes were placed on a support lying in a large water-reservoir at ambient temperature in order to avoid temperature effects. […] After 3-5 days of incubation (at 37° C. in the dark) the survival was determined as described in the general section and given relative to the non-illuminated control sample.
Photodynamic inactivation of P. acnes after incubation with the 5-ALA esters listed in Example 9 (at 0.4 mM concentration) was studied following illumination with an Aktilite® 128 lamp.

[3] = Itoh et al. 2001; Hongcharau et al. 2000; cited from earlier work
P. granulosum = assay: Dark toxicity in P. granulosum; assay type: cell-based, Propionibacterium granulosum
Protocol: Propionibacterium granulosum (P. granulosum) was obtained from American Type Culture Collection (ATCC No. 25564).
as §2, with “spectrophotometer. At this OD the bacteria density is approximately 5×10^8 cells per ml.” for “spectrophotometer.”
as §3
After treatment with ALA esters (with or without illumination), the treated bacteria samples (as well as untreated controls) were collected and further diluted with PIPES buffer to 1×10^4 bacteria per ml. […] The colonies formed on the Bactoagar Petri-plates were counted using a colony counter. […]

P. acnes [4] = assay: PDT with CureLight BroadBand lamp, P. acnes survival; assay type: cell-based, Propionibacterium acnes; conditions: for effectiveness to kill the bacteria (FIG. 3): 4 mM methyl ester, 4 mM benzyl ester, 1 mM hexyl ester, red light 580-740 nm
Protocol: as §1
as §2, with “spectrophotometer. At this OD the bacteria density is approximately 5×10^8 cells per ml.” for “spectrophotometer.”
as §3
In some cases, illumination was performed on the bacteria-suspensions treated with ALA esters. The exact conditions are described in the Examples below. After illumination, survival was assayed as described below.
as §4
Bacteria suspensions (P. acnes) were treated with 4 mM ALA methyl ester, 4 mM benzyl ester and 1 mM hexyl ester (due to high dark toxicity results for this ester) as described in the general section above, diluted and illuminated using a CureLight BroadBand lamp (available from PhotoCure ASA, Norway, red light of 580-740 nm and a fluence rate of ≦840 W/m^2) under temperature controlled conditions (e.g. at ambient temperature). During illumination, 2×20 μl aliquots were collected every second minute for at total of 10 minutes and assayed for survival as described in the general section above. Relative survival after illumination was calculated relative to the control sample without red light exposure.

P. acnes [5] = assay: Intracellular porphyrin formation in P. acnes (fluorescence emission); assay type: cell-based, Propionibacterium acnes; conditions: four hours incubation at 37° C. in the dark, various concentrations
Protocol: To study the intracellular porphyrin formation after incubation with the ALA esters, bacteria (5×10^8 cells per ml, 10 ml) were incubated with ALA esters at 37° C. in the dark for four hours. The formation of porphyrins was followed by studying the fluorescence emission spectra (the porphyrins display characteristic peaks). The procedure was as follows:
To assess the amount of endogenously retained porhyrins, 8 ml of the 5-ALA ester incubated bacteria were added to plastic test-tubes and incubated at 2-3° C. in the refrigerator to halt further 5-ALA ester uptake and/or porhyrin formation. Then the cells from were pelleted by centrifugation (5000 g, 5 rain, 2-3° C.), the supernatant discarded and the cells resuspended in fresh buffer (8 ml) and mixed well. Aliquots of 2 ml bacterial suspension were transferred to standard disposable plastic cuvettes, and fluorescence emission spectra of the cell suspensions were determined in a Perkin Elmer LS 50B fluorescence spectrometer using the following settings:
Excitation wavelength, λx: 405 nm
Emission wavelength, λe: 550-700 nm
Excitation and emission slits: 5 nm
Emission monochromator speed: 300 nm/min
The fairly broad range of wavelengths measured was motivated by the need to have a control of the autofluorescence from the bacteria, which is most easily discernable at the lower or higher wavelengths.

P. avidum = assay: Dark toxicity in P. avidum; assay type: cell-based, Propionibacterium avidum
Protocol: Propionibacterium avidum (P. avidum) was obtained from ATCC (ATCC No. 25577).
as §2, with “spectrophotometer. At this OD the bacteria density is approximately 5×10^8 cells per ml.” for “spectrophotometer.”
as §3
After treatment with ALA esters (with or without illumination), the treated bacteria samples (as well as untreated controls) were collected and further diluted with PIPES buffer to 1×10^4 bacteria per ml. Aliquots of 20 ml of this suspension were then transferred to Bactoagar Petri-dishes (Futsaether et al., Can. J. Microbiol., 39(2): 180-186 1993), and incubated for 3-5 days at 37° C. in the dark. The colonies formed on the Bactoagar Petri-plates were counted using a colony counter. […]

[6] = Example 9, concentrations up to 20 mM
[7] = hexylester compared with benzylester

Compound	% CFU (mean normalised colony-forming units) ([1]; 0.4 mM)	% CFU (mean normalised colony-forming units) ([1]; 4 mM)	% CFU (mean normalised colony-forming units) ([1]; 20 mM)	PDT effect, photodynamic inactivation (FIG. 10) (P. acnes [2])	kill (P. acnes [2])	effectiveness to kill the bacteria (FIG. 3) (P. acnes [4])	dark toxicity (FIG. 2) [1]	inducing porphyrin formation (FIG. 5) (P. acnes [5])	other results
COCCOC(=O)CCC(=O)CN [2-methoxyethyl, 2-methoxyethyl 5-aminolevulinate]	75.5%	60.8%	54.0%	weaker PDT effect	–	–	–	–	dark toxicity (in words) [1, 6]: almost no toxicity
Cc1ccccc1COC(=O)CCC(=O)CN [2-methylbenzyl, 2-methylbenzyl ALA ester]	66.0%	1.2%	0.0%	good abilities to kill the bacteria	approx. 50%	–	–	–	dark toxicity (in words) ([1]; Example 9, at 4 mM): considerable toxicity
NCC(=O)CCC(=O)OCc1ccc(Cl)cc1 [4-chlorobenzyl, 4-chlorobenzyl ALA ester]	81.6%	3.7%	0.0%	most efficient	~100%	–	–	–	dark toxicity (in words) ([1]; Example 9, at 4 mM): considerable toxicity
CC(C)CCCOC(=O)CCC(=O)CN [4-methylpentyl, 4-methylpentyl ALA ester]	86.5%	37.3%	0.5%	weaker PDT effect	–	–	–	–	–
NCC(=O)CCC(=O)OCc1ccc([N+](=O)[O-])cc1 [4-nitrobenzyl, 4-nitrobenzyl ALA ester]	63.5%	61.8%	53.2%	most efficient	~100%	–	–	–	dark toxicity (in words) [1, 6]: almost no toxicity
NCC(=O)CCC(=O)O [5-ALA, 5-amino-4-oxo-pentanoic acid]	–	–	–	–	–	–	–	–	adverse effects of ALA-PDT [3]: significant adverse effects; efficacy of ALA-PDT for treatment of acne [3]: may be effective
CCCCCCOC(=O)CCC(=O)CN [ALA hexyl ester, Hexyl 5-aminolevulinate]	–	–	–	–	–	quite effective	very toxic	least effective	killed (P. granulosum; 4 mM, dark): 100%; dark toxicity (FIG. 6) (P. granulosum; [7]): considerably more toxic; bacteria killed (P. acnes [2]; 1 mM): 40%; killed (P. avidum; 4 mM, dark): 100%; dark toxicity (FIG. 6) (P. avidum; [7]): considerably more toxic
COC(=O)CCC(=O)CN [ALA methyl ester, methyl ALA ester]	–	–	–	–	–	least effective	essentially non-toxic	slightly higher porphyrin levels	–
NCC(=O)CCC(=O)OCc1ccccc1 [Benzyl, benzyl 5-aminolevulinate]	78.3%	62.9%	15.0%	good abilities to kill the bacteria	approx. 50%	most effective	intermediate toxicity	by far the most effective inducer	light dose sufficient to obtain 100% kill (P. acnes [4]; 4 mM, CureLight BroadBand lamp): approx. 10 J/cm^2; bacteria killed (P. acnes [2]; 1 mM): killed all bacteria; photodynamic effect (FIG. 4) (P. acnes [2]; 1 mM, LED lamp 634 nm): much better photodynamic effect
